Experimental data taken from patent US6790470B1, “Aspartame derivative crystal and process for producing the same” (Ajinomoto Co., Inc., priority 1998, dated 2004).

Assays:
[1] = Inherent dissolution rate of tabletted dried crystals in ion exchanged water (Test Example 1); assay type: physicochemical; conditions: for amount of crystals dissolved: 300 mg tablet, 300 ml ion exchanged water, 20° C., 200 rpm
Protocol: Measurement of the Dissolution Rate for the Dried Crystals The dissolution rates of the A-type crystals (Reference Example 2(b)) and the C-type crystals (Example 1) were determined in the following method. That is, 300 mg each of the crystals were introduced into a tabletting mortar (tablet machine) with an internal diameter of 8 mm and a depth of 12 mm, and tabletted at 300 kg/cm2G with “High Pressure Jack J-1 type” (manufactured by Iuchi Seieido) to prepare a sample for measurement of dissolution rate. For measurement of the dissolution rate, the tabletting mortar with only the tabletting face exposed was introduced into 300 ml ion exchanged water kept at 20° C. at a stirring in the number of revolution of 200 rpm, and the inherent dissolution rate was determined using “DISSOLUTION TESTER” (NTR-6100) (manufactured by Toyama Sangyo K. K.).

[2] = Dissolution time, Japanese Pharmacopoeia Paddle method (Test Example 2); assay type: physicochemical; conditions: 0.5 g sample in 900 ml water (20° C.), 100 rpm, end point visually confirmed
Protocol: Measurement of the Dissolution Rates of the C-type Crystals (Original Powder) and Granules Thereof 0.5 g of the sample was introduced into 900 ml water (20° C.) in a 1-L elution tester (the Japanese Pharmacopoeia, Paddle method, 100 rpm) and its dissolution time was measured (end point was visually confirmed). That is, the C-type crystals (original powder with an average particle size of about 50 μm) obtained in Example 1 above and the granules (particle size of 100 to 500 μm and 500 to 1,400 μm) of C-type crystals obtained in Example 2 above were examined for measurements of their dissolution times in the same manner as described above.

[3] = weight ratio, cited from earlier work

amount of crystals dissolved ([1]; 30 minutes) | amount of crystals dissolved ([1]; 60 minutes) | amount of crystals dissolved ([1]; 120 minutes) | dissolution rate as compared with the A-type crystals ([1]; comparison with A-type crystals) | dissolution time [2] | Compound | efficacy of sweetness relative to Aspartame ([3]; versus Aspartame) | efficacy of sweetness relative to sucrose ([3]; versus sucrose (table sugar))
25 mg | 42 mg | 86 mg | significantly improved dissolution rate | 55 min | COC(=O)[C@H](Cc1ccccc1)NC(=O)[C@H](CC(=O)O)NCCC(C)(C)C [C-type crystals, N-[N-(3,3-dimethylbutyl)-L-α-aspartyl]-L-phenylalanine methyl ester] | – | –
17 mg | 34 mg | 69 mg | – | – | COC(=O)[C@H](Cc1ccccc1)NC(=O)[C@H](CC(=O)O)NCCC(C)(C)C [A-type crystals, N-[N-(3,3-dimethylbutyl)-L-α-aspartyl]-L-phenylalanine methyl ester, reference compound] | – | –
– | – | – | – | – | COC(=O)[C@H](Cc1ccccc1)NC(=O)[C@H](CC(=O)O)NCCC(C)(C)C [N-(3,3-dimethylbutyl)-APM, N-[N-(3,3-dimethylbutyl)-L-α-aspartyl]-L-phenylalanine methyl ester] | at least 50 times | about 10,000 times
